The source of these data is patent publication US20240269238A1, “Therapeutic Regimens and Methods for Reducing Body Weight in a Subject with Fatty Liver Disease using a GLP-1R and GCGR Agonist” (Spitfire Pharma LLC, priority 2022, published 2024).

Molecules are shown by their SMILES. Entries after “also recorded” stand apart in the source; their conditions may differ.

Data set [1] in a line: Phase 1 study NCT0456124 (Example 2): safety and tolerability. Conditions: 12 weeks. It is filed as in vivo, human.
A short description of data set [2]: Phase II 24-week interim analysis in non-diabetic obese and overweight subjects (NCT05295875, Example 4). It is filed as in vivo, human. The text has this:
Results presented in this example correspond to a 24-week interim analysis obtained from a placebo-controlled phase II study (ClinicalTrials.gov Identifier: NCT05295875) evaluating pemvidutide (ALT-801) in obese and overweight subjects. It is estimated that 70 to 75% subjects of this population have NAFLD while 34% may have NASH (Quek J. et al. Global prevalence of non-alcoholic fatty liver disease and non-alcoholic steatohepatitis in the overweight and obese population: a systematic review and meta-analysis. Lancet Gastroenterol Hepatol. 2023 January; 8(1):20-30). Key eligibility criteria were: (1) Men and women, ages 18-75 years; (2) at least one unsuccessful weight loss attempt per Investigator judgement; (3) Body Mass Index (BMI) ≥30 kg/m2 or BMI ≥27 kg/m2 with at least one obesity-related comorbidity (history of cardiovascular disease, hypertension, dyslipidemia, pre-diabetes or obstructive sleep apnea) and (4) non-diabetes (HbA1c ≤6.5% and fasting glucose ≤125 mg/dL). Eligible subjects were randomized 1:1:1:1 to one of the following treatment arms: Group 1 (39 subjects): pemvidutide 1.2 mg SC once weekly for 24 weeks; Group 2 (40 subjects): pemvidutide 1.8 mg administered subcutaneously once weekly for 24 weeks; Group 3 (40 subjects): pemvidutide 0.6 mg administered subcutaneously for 1 week, 1.2 mg administered subcutaneously for 1 week, 1.8 mg administered subcutaneously once weekly for 2 weeks, followed by 2.4 mg administered subcutaneously once weekly for 20 additional weeks (in sequence) and Group 4 (41 subjects): Placebo administered subcutaneously once weekly for 24 weeks. The randomization of subjects was stratified based on sex and baseline body mass index (BMI <35 kg/m2 vs. ≥35 kg/m2). A minimum of 25% of randomized subjects were male. All subjects received counselling on a reduced-calorie diet of 1200-1500 calories for individuals <250 lbs (113.6 kg) and 1500-1800 calories for individuals ≥250 lbs (113.6 kg) and a gradual increase in physical activity (targeting 150 min of physical activity per week) by a qualified healthcare professional at screening and at subsequent visits during the treatment period. Subjects were instructed to record their food intake and physical activity daily, and compliance with lifestyle interventions will be assessed by the investigator on a regular basis. A subgroup of subjects were subjected MRI-PDFF to evaluate the hepatic fat fraction in as well as composition to measure total body adipose tissue (AT) and adipose tissue-free mass (ATFM).
FIG. 27 presents the mean percentage weight loss over time in all evaluated subjects across the three pemvidutide doses and placebo over 24 weeks. Results are presented as efficacy estimand that assumes subjects remained on treatment for the entire duration, with missing values handled by Mixed Models for Repeated Measures. […] FIG. 28 presents the mean percentage weight loss (presented as efficacy estimand as described above) that was achieved over 24 weeks with pemvidutide and placebo in a subgroup of subjects with baseline body weight ≤115 kg. […] This phenomenon may relate to a lower level of drug exposure in subjects with higher body weight, and would support the possibility to increase dose levels in this population to maximize efficacy. FIG. 29 presents a weight loss responder analysis based on calculation of percentage of subjects who respectively achieve ≥5%, ≥10% and ≥15% weight loss across the three pemvidutide doses and placebo. FIG. 30 presents the percentage weight loss achieved across the four groups comparing Hispanic versus non-Hispanic subjects. […] Waist circumference is an index of central or abdominal obesity recommended by the WHO to assess the risk of metabolic diseases such as NAFLD and NASH and cardiovascular diseases.

For `CC[C@H](C)[C@H](NC(=O)[C@H](Cc1ccccc1)NC(=O)[C@H](CCC(=O)O)NC(=O)[C@@H]1CCCCNC(=O)CC[C@H](NC(=O)[C@H](CC(=O)O)NC(=O)[C@H](CC(C)C)NC(=O)[C@H](Cc2ccc(O)cc2)NC(=O)[C@H](CCCCN)NC(=O)[C@H](CO)NC(=O)[C@H](Cc2ccc(O)cc2)NC(=O)[C@H](CC(=O)O)NC(=O)[C@H](CO)NC(=O)[C@@H](NC(=O)[C@H](Cc2ccccc2)NC(=O)[C@@H](NC(=O)CNC(=O)[C@H](CCC(N)=O)NC(=O)C(C)(C)NC(=O)[C@@H](N)Cc2c[nH]cn2)[C@@H](C)O)[C@H](C)O)C(=O)N[C@@H](CCCCNC(=O)C2O[C@@H](OCCCCCCCCCCCCCCCCCC(=O)O)C(O)C(O)[C@@H]2O)C(=O)N[C@@H](C)C(=O)N[C@@H](C)C(=O)N1)C(=O)N[C@@H](CCC(N)=O)C(=O)N[C@@H](Cc1c[nH]c2ccccc12)C(=O)N[C@@H](CC(C)C)C(=O)N[C@@H](CC(C)C)C(=O)N[C@@H](CCC(N)=O)C(=O)N[C@H](C(N)=O)[C@@H](C)O` (stereo partly shown) [ALT-801, Pemvidutide], the tolerability result in data set [1] (1.2, 1.8, 2.4 mg weekly, no dose titration) was “well-tolerated at all dose levels; also recorded: safe and well-tolerated”. For the same compound, in data set [1], the “SAEs or AEs leading to treatment discontinuation” value was “no SAEs or AEs leading to treatment discontinuation were reported” and the “severity of AEs” value was “mild or moderate severity”. For the same compound, in data set [2] (1.2, 1.8, 2.4 mg, 24-week treatment), the heart rate entry is “do not induce a significant change in heart rates”. For the same compound, in data set [2] (24-week treatment), the “systolic and diastolic blood pressure” value was “improves both systolic and diastolic blood pressures in a dose dependent manner”. For the same compound, the “weight loss, Hispanic versus non-Hispanic subjects” value in data set [2] (24 weeks) is “tend to lose less body weight”. Moreover, in data set [2] (all doses, week 24), the serum lipids entry was “decreased as compared to baseline” and the waist circumference entry is listed as “significant reduction in waist circumference”. Besides, the “mean percentage weight loss over time” value in data set [2] (all evaluated subjects, 1.2, 1.8, 2.4 mg, 24 weeks) is “progressive, dose-dependent weight loss”. The “weight loss in subgroup vs all subjects” value in data set [2] (baseline body weight <=115 kg, 24 weeks) is “higher levels of weight loss”.
